Toxic doses and inconclusive results are not listed. Rule for the calls: active = survival T/C of 150% or more; inactive = T/C below 125% in these data. Positions of bridges follow the written chain, without caps; N, C: chain ends. Residues, ends and D or L forms follow the SMILES beside them.
System: CD2F1 mice, L1210 leukemia ip, survival T/C
Test: NCI In Vivo Anticancer Drug Screen. Data for tumor model L1210 Leukemia (intraperitoneal) in CD2F1 (CDF1) mice
Details: endpoint: mean survival time, higher = longer survival
Summary of the method: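 Ratio T/C, where T is the treated-group value and C the vehicle-dosed control value, from mice implanted with a transplantable tumor.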

[1] = dose: 100.0 mg/kg/injection, schedule: Q04DX003 (ip), vehicle: saline with Tween-80
[2] = dose: 200.0 mg/kg/injection, schedule: Q04DX003 (ip), vehicle: saline with Tween-80
[3] = dose: 400.0 mg/kg/injection, schedule: Q04DX003 (ip), vehicle: saline with Tween-80

Measured: T/C

CCC(C)C1NC(=O)C(CC(C)C)NC(=O)C(C(C)C)NC(=O)C2CSSCC(NC1=O)C(=O)N2 (stereo unspecified) (cyclo(CCVLI); disulfide 1-2; configuration not given here)
inactive: dose: 31.25 micrograms/kg/injection, schedule: Q01DX009 (ip), vehicle: Klucel (hydroxypropylcellulose) (HPC) 93 % of control | dose: 62.5 micrograms/kg/injection, schedule: Q01DX009 (ip), vehicle: Klucel (hydroxypropylcellulose) (HPC) 95 % of control | dose: 125.0 micrograms/kg/injection, schedule: Q01DX009 (ip), vehicle: Klucel (hydroxypropylcellulose) (HPC) 98 % of control | dose: 250.0 micrograms/kg/injection, schedule: Q01DX009 (ip), vehicle: Klucel (hydroxypropylcellulose) (HPC) 96 % of control | dose: 500.0 micrograms/kg/injection, schedule: Q01DX009 (ip), vehicle: Klucel (hydroxypropylcellulose) (HPC) 98 % of control | dose: 1000.0 micrograms/kg/injection, schedule: Q01DX009 (ip), vehicle: Klucel (hydroxypropylcellulose) (HPC) 96 % of control

C/C(=C\c1ccccc1)C(=O)c1ccccc1
inactive: dose: 100.0 mg/kg/injection, schedule: Q04DX003 (ip), vehicle: Klucel (hydroxypropylcellulose) (HPC) 106 % of control | dose: 200.0 mg/kg/injection, schedule: Q04DX003 (ip), vehicle: Klucel (hydroxypropylcellulose) (HPC) 101 % of control | dose: 400.0 mg/kg/injection, schedule: Q04DX003 (ip), vehicle: Klucel (hydroxypropylcellulose) (HPC) 98 % of control

C/C=C(/C(=O)OC)c1ccc([N+](=O)[O-])cc1
inactive: dose: 100.0 mg/kg/injection, schedule: Q01DX009 (ip), vehicle: saline with Tween-80 94 % of control | [1] 92 % of control | dose: 200.0 mg/kg/injection, schedule: Q01DX009 (ip), vehicle: saline with Tween-80 95 % of control | [2] 94 % of control | dose: 400.0 mg/kg/injection, schedule: Q01DX009 (ip), vehicle: saline with Tween-80 94 % of control | [3] 92 % of control

N#Cc1ccc(C(Cl)(Cl)Cl)cc1
inactive: [1] 104 % of control | [2] 98 % of control | [3] 96 % of control

CC(=O)CCCN(CCO)CCO
inactive: dose: 100.0 mg/kg/injection, schedule: Q01DX001 (ip), vehicle: saline 103 % of control | dose: 200.0 mg/kg/injection, schedule: Q01DX001 (ip), vehicle: saline 93 % of control | dose: 400.0 mg/kg/injection, schedule: Q01DX001 (ip), vehicle: saline 101 % of control

From PubChem BioAssay AID256 (DTP/NCI, 2004)
